In patent US12281057B2 (VERTEX PHARMACEUTICALS INCORPORATED, priority 2017, dated 2025):
Like-named read-outs stand apart in the source and are kept apart here. Each block holds one compound with its values, some of them ahead of it.

Biological target: truncated form of human NaV 1.8 with full channel activity (Homo sapiens, UniProt Q9Y5Y9)
Assay: E-VIPR Assay Method A for detecting and measuring Nav inhibition (HEK cells, membrane potential FRET dyes, electrical stimulation)
Type: cell-based
Details: HEK cells expressing human NaV 1.8, HS (human serum) in compound loading buffer, 11 point dose response, top dose 3 μM
Summary of the method: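 Read-out: FRET membrane-potential dye ratio (460/580 nm) before and during E-VIPR field stimulation at 10 Hz for 10 s, expressed as % activity between DMSO and positive controls. Cells: HEK with truncated human NaV1.8; compound preincubated 30 min at room temp, final DMSO 0.625%.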

[1] = Table 20A, read-out: Nav 1.8 MedChem Optical Assay EVIPR Assay Method A HS IC50
[2] = Table 20, read-out: Nav 1.8 MedChem Optical Assay EVIPR Assay Method A HS IC50

Sequence of truncated form of human NaV 1.8 with full channel activity (Q9Y5Y9 126-1722 limits assumed): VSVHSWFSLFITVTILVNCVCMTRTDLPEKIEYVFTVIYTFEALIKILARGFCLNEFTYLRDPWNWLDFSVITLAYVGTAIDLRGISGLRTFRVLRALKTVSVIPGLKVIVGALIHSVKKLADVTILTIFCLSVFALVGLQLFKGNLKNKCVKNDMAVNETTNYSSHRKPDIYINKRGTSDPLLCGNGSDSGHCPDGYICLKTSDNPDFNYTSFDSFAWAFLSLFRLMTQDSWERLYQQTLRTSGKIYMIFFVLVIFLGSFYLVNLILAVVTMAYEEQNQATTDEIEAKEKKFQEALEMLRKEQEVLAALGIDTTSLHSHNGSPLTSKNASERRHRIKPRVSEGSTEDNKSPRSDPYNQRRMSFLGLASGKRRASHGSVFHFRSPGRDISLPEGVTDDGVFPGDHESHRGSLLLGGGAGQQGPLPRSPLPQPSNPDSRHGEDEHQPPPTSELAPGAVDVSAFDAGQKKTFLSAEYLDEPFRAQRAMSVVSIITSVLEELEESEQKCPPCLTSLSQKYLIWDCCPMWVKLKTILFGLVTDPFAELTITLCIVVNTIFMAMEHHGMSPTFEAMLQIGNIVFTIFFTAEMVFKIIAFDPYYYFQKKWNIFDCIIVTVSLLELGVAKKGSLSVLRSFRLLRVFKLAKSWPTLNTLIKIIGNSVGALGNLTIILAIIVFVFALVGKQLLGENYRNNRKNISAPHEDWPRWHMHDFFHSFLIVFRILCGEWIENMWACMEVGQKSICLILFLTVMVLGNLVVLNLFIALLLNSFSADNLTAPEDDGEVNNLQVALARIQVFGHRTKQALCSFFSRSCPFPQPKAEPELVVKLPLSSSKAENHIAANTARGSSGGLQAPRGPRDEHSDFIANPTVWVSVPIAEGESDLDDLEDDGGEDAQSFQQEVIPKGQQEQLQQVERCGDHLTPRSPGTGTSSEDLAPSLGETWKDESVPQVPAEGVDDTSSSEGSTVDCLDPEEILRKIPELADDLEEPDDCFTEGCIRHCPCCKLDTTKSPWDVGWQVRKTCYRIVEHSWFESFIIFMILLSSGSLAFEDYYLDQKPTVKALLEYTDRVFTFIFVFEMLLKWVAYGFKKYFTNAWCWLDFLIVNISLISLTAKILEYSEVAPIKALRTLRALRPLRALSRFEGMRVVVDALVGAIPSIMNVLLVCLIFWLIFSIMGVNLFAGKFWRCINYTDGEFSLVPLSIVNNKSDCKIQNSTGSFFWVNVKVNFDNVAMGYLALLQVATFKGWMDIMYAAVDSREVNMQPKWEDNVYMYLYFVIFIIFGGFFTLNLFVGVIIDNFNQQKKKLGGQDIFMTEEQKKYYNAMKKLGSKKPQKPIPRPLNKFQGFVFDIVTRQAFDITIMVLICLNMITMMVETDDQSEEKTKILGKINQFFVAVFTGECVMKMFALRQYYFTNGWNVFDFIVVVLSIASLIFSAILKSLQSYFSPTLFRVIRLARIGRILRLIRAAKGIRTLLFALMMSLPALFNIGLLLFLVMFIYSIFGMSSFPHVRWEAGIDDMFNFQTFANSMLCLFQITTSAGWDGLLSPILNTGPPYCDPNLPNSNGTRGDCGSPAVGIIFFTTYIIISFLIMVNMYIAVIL

Structure (SMILES): NC(=O)c1cc(NC(=O)c2c(Oc3ccc(OC(F)(F)F)cc3)cnc(C(F)(F)F)c2F)ccc1F [Compound 62, N-(3-Carbamoyl-4-fluoro-phenyl)-3-fluoro-5-[4-(trifluoromethoxy)phenoxy]-2-(trifluoromethyl)pyridine-4-carboxamide]
- IC50 [1]: 11 nM

Structure (SMILES): [2H]C([2H])([2H])Oc1c(Oc2ccc(C(F)(F)F)c(F)c2C(=O)Nc2ccnc(C(N)=O)c2)ccc(OC(F)(F)F)c1F [Compound 218, 4-[[2-Fluoro-6-[3-fluoro-2-(trideuteriomethoxy)-4-(trifluoromethoxy)phenoxy]-3-(trifluoromethyl)benzoyl]amino]pyridine-2-carboxamide]
- IC50 [1]: 2 nM

Structure (SMILES): COc1cc(OC(F)(F)F)ccc1Oc1ccc(C(F)(F)F)c(F)c1C(=O)Nc1cc(C(N)=O)c(F)cc1C [Compound 118]
- IC50 [1]: 100 nM

Structure (SMILES): CC(C)c1cc(Oc2ccc(OC(F)(F)F)c(F)c2)c(C(=O)Nc2ccc(F)c(C(N)=O)c2)cn1 [Compound 33, N-(3-Carbamoyl-4-fluoro-phenyl)-4-[3-fluoro-4-(trifluoromethoxy)phenoxy]-6-isopropyl-pyridine-3-carboxamide]
- IC50 [1]: 520 nM

Structure (SMILES): [2H]C([2H])([2H])Oc1cc(OC(F)(F)F)ccc1Oc1cc(Cl)cc(Cl)c1C(=O)Nc1ccnc(C(N)=O)c1 [Compound 179, 4-[[2,4-Dichloro-6-[2-(trideuteriomethoxy)-4-(trifluoromethoxy)phenoxy]benzoyl]amino]pyridine-2-carboxamide]
- IC50 [1]: 10 nM

Structure (SMILES): COc1cc(OC(F)(F)F)ccc1Oc1cc(C2CC2)ncc1C(=O)Nc1ccnc(C(N)=O)c1 [Compound 78]
- IC50 [1]: 97 nM

Structure (SMILES): COc1cc(OC(F)(F)F)ccc1Oc1cncc(F)c1C(=O)Nc1cc(C(N)=O)ncc1C [Compound 151, 4-[[3-Fluoro-5-[2-methoxy-4-(trifluoromethoxy)phenoxy]pyridine-4-carbonyl]amino]-5-methyl-pyridine-2-carboxamide]
- IC50 [1]: 520 nM

Structure (SMILES): Cc1cc(OC(F)(F)F)ccc1Oc1ccc(C(F)(F)F)c(F)c1C(=O)Nc1ccc(C(N)=O)c(F)c1 [Compound 66, N-(4-carbamoyl-3-fluoro-phenyl)-2-fluoro-6-[2-methyl-4-(trifluoromethoxy)phenoxy]-3-(trifluoromethyl)benzamide]
- IC50 [1]: 38 nM

Structure (SMILES): [2H]C([2H])([2H])Oc1cc(OC(F)(F)F)ccc1Oc1ccc(C(F)(F)F)c(F)c1C(=O)Nc1cc(C(N)=O)ncc1C [Compound 137, 4-[[2-Fluoro-6-[2-(trideuteriomethoxy)-4-(trifluoromethoxy)phenoxy]-3-(trifluoromethyl)benzoyl]amino]-5-methyl-pyridine-2-carboxamide]
- IC50 [1]: 5 nM

Structure (SMILES): COc1cc(OC(F)(F)F)ccc1Oc1cc(Cl)cc(F)c1C(=O)Nc1ccnc(C(N)=O)c1 [Compound 170, 4-[[4-Chloro-2-fluoro-6-[2-methoxy-4-(trifluoromethoxy)phenoxy]benzoyl]amino]pyridine-2-carboxamide]
- IC50 [1]: 14 nM

Structure (SMILES): COc1c(C(F)(F)F)ncc(Oc2ccc(OC(F)(F)F)cc2)c1C(=O)Nc1cc(C(N)=O)ncc1C [Compound 131, N-(2-Carbamoyl-5-methyl-4-pyridyl)-3-methoxy-5-[4-(trifluoromethoxy)phenoxy]-2-(trifluoromethyl)pyridine-4-carboxamide]
- IC50 [1]: 170 nM

Structure (SMILES): NC(=O)c1cc(NC(=O)c2c(Oc3ccc(OC(F)(F)F)cc3)cccc2C(F)(F)F)ccc1F [Compound 39, N-(3-Carbamoyl-4-fluoro-phenyl)-2-[4-(trifluoromethoxy)phenoxy]-6-(trifluoromethyl)benzamide]
- IC50 [1]: 210 nM

Structure (SMILES): COc1cc(OC(F)(F)F)ccc1Oc1ccc(C(F)(F)C(F)(F)F)cc1C(=O)Nc1ccc(F)c(C(N)=O)c1 [Compound 19, N-(3-carbamoyl-4-fluoro-phenyl)-2-[2-methoxy-4-(trifluoromethoxy)phenoxy]-5-(1,1,2,2,2-pentafluoroethyl)benzamide]
- IC50 [2]: 10 nM

Structure (SMILES): COc1cc(OC(F)(F)F)ccc1Oc1cc(C(C)(C)C)ncc1C(=O)Nc1ccc(F)c(C(N)=O)c1 [Compound 94, 6-tert-Butyl-N-(3-carbamoyl-4-fluoro-phenyl)-4-[2-methoxy-4-(trifluoromethoxy)phenoxy]pyridine-3-carboxamide]
- IC50 [1]: 18 nM

Structure (SMILES): COc1cc(OC(F)(F)F)ccc1Oc1ccc(C(F)(F)F)c(F)c1C(=O)Nc1cccc(C(=O)N(C)C)c1 [Compound 96, N-[3-(dimethylcarbamoyl)phenyl]-2-fluoro-6-[2-methoxy-4-(trifluoromethoxy)phenoxy]-3-(trifluoromethyl)benzamide]
- IC50 [1]: 54 nM

Structure (SMILES): COc1cc(F)ccc1Oc1ccc(OC(F)(F)F)cc1C(=O)Nc1ccnc(C(N)=O)c1 [Compound 157, 4-[[2-(4-Fluoro-2-methoxy-phenoxy)-5-(trifluoromethoxy)benzoyl]amino]pyridine-2-carboxamide]
- IC50 [1]: 1000 nM

Structure (SMILES): [2H]C([2H])([2H])Oc1cc(OC(F)(F)F)ccc1Oc1cc(C(F)(F)F)cc(F)c1C(=O)Nc1ccc(C(N)=O)nc1 [Compound 154]
- IC50 [1]: 55 nM

More lines, now with the values ahead:

- IC50 [1]: 44 nM
Structure (SMILES): COc1ccc(Oc2ccc(C(F)(F)F)c(F)c2C(=O)Nc2ccnc(C(N)=O)c2)c(OC(F)(F)F)c1 [Compound 196, 4-[[2-Fluoro-6-[4-methoxy-2-(trifluoromethoxy)phenoxy]-3-(trifluoromethyl)benzoyl]amino]pyridine-2-carboxamide]

- IC50 [1]: 51 nM
Structure (SMILES): NC(=O)c1cc(NC(=O)c2c(Oc3ccc(F)cc3)ccc(C(F)(F)F)c2F)ccn1 [Compound 50, 4-[[2-fluoro-6-(4-fluorophenoxy)-3-(trifluoromethyl)benzoyl]amino]pyridine-2-carboxamide]

- IC50 [2]: 2 nM
Structure (SMILES): COc1cc(OC(F)(F)F)ccc1Oc1ccc(C(F)(F)F)c(F)c1C(=O)Nc1ccnc(C(N)=O)c1 [Compound 4, 4-[[2-fluoro-6-[2-methoxy-4-(trifluoromethoxy)phenoxy]-3-(trifluoromethyl)benzoyl]amino]pyridine-2-carboxamide]

- IC50 [1]: 140 nM
Structure (SMILES): NC(=O)c1cc(NC(=O)c2c(Oc3ccc(OC(F)F)cc3F)ccc(C(F)(F)F)c2F)ccn1 [Compound 136, 4-[[6-[4-(Difluoromethoxy)-2-fluoro-phenoxy]-2-fluoro-3-(trifluoromethyl)benzoyl]amino]pyridine-2-carboxamide]

- IC50 [1]: 13 nM
Structure (SMILES): NC(=O)c1cc(NC(=O)c2c(Oc3ccc(F)cc3OC(F)F)ccc(C(F)(F)F)c2F)ccn1 [Compound 208, 4-[[6-[2-(Difluoromethoxy)-4-fluoro-phenoxy]-2-fluoro-3-(trifluoromethyl)benzoyl]amino]pyridine-2-carboxamide]

- IC50 [1]: 260 nM
Structure (SMILES): COc1ccc(Oc2ccc(C(F)(F)F)c(F)c2C(=O)Nc2ccc(F)c(C(N)=O)c2)cn1 [Compound 56, N-(3-carbamoyl-4-fluoro-phenyl)-2-fluoro-6-[(6-methoxy-3-pyridyl)oxy]-3-(trifluoromethyl)benzamide]

- IC50 [1]: 7 nM
Structure (SMILES): Cc1cc(OC(F)(F)F)ccc1Oc1ccc(C(F)(F)F)c(F)c1C(=O)Nc1ccnc(C(N)=O)c1 [Compound 59, 4-[[2-fluoro-6-[2-methyl-4-(trifluoromethoxy)phenoxy]-3-(trifluoromethyl)benzoyl]amino]pyridine-2-carboxamide]

- IC50 [1]: 185 nM
Structure (SMILES): NC(=O)c1ccc(NC(=O)c2c(Oc3ccc(OC(F)(F)F)cc3)ccc(C(F)(F)F)c2F)cn1 [Compound 60, 5-[[2-fluoro-6-[4-(trifluoromethoxy)phenoxy]-3-(trifluoromethyl)benzoyl]amino]pyridine-2-carboxamide]
